Results: patent US9422521B2, “Differentiation of pluripotent stem cells with a kinase inhibitor or PGI2” (ES Cell International Pte Ltd., priority 2005, dated 2016)
“Also recorded” adds a separate entry of the source.

Legend:
[1] = test system: hES cells; conditions: Vitamin C added to the END2-hES co-culture system; cited from earlier work
[2] = test system: hES cells; assay: qRT-PCR of cardiac and lineage marker genes in differentiating EBs; format: cell-based, human
Protocol: RNA extraction: EBs at the end of the twelve day period or as indicated in the text were harvested. All EBs from 3 wells were pooled and washed once in PBS^−. Trizol (Invitrogen) was added before freezing the EBs at −80° C. to enhance cell lysis. Frozen samples were thawed and harshly mixed. Chloroform was added to the sample and incubated for 3 min at room temperature. The sample was centrifuged for 15 min at 13000 rpm at 4° C. and the aqueous phase collected. An equal volume of 70% ethanol was added before the sample was loaded onto an RNeasy mini column (Qiagen). The column was centrifuged for 15 sec at ≧8000 g. The rest of the purification steps were performed according to manufacturer's instructions. RNA was eluted in RNase-free water. 5 μg of the RNA sample were then treated with DNase (Invitrogen) in a volume of 50 μl. The mixture was incubated at room temperature for 30 min and heat inactivated for 10 min at 80° C. before cooling rapidly on ice.
Reverse transcriptase: 5 μg of total RNA was mixed with 2 μl of 3 μg/μl random primers (Invitrogen) in a final volume of 100 μl. 75 μl were reversed transcribed (BioLabs), the remaining 25 μl served as a negative control. Samples were incubated for 1 hour at 37° C. before the reaction was terminated for 5 min at 95° C.
Real-time PCR: The PCR reaction was performed on 100 ng of cDNA, with 15 μl of 2× IQ™ SYBR® Green Supermix (Biorad) in a final reaction volume of 30 μl. To minimize variations in the triplicates, a master mix was prepared containing all reaction components except cDNA. PCR was performed on an iCycler™ (Biorad), annealing at 58° C. for 30 sec, extension at 72° C. for 45 sec, 40 cycles in total. Relative expression values were obtained by normalizing CT values of the tested genes in comparison with CT values of the housekeeping gene α-Actin using the ΔΔ CT method (19). The samples were subjected to PCR amplification with human gene primers including: […]
The samples were subjected to PCR amplification with human gene primers including: […]
The samples were subjected to PCR amplification with human gene primers including MESP1 (sense primer: […]; antisense primer: […]).

[3] = test system: hES cells; assay: hES differentiation as embryoid bodies (EBs) in suspension culture, scoring of beating EBs; format: cell-based, human; conditions: for number of EBs with beating foci: 5 μM in END2-CM, added early (during or shortly after EB formation), day 12, vs END2-CM alone
Protocol: This method describes hES differentiation through the formation of embryoid bodies (EB) from hES cells grown on MEF. EBs can also be generated from hES grown in feeder free systems. Formed EBs were then cultured in respective media such as SF or END2-CM. […] Enzymatically passaged hES cells grown on feeder cells were washed once with PBS^+ and treated with Collagenase IV (1 mg/ml) for 3-4 min at 37° C. The Collagenase IV solution was replaced by DMEM and the cells were mechanically dissociated with a pipette tip. Cells were then harvested using a cell scraper and the cell suspension was transferred to a 50 ml tube (Falcon). Cell clumps were collected by gravity and the supernatant was aspirated. Cells were resuspended in fresh DMEM medium aiming to uniformly disperse the cell clumps in the suspension. An equal volume of the cell suspension was then transferred to ultra low attachment plates (Costar). […] Alternatively, cells can be seeded into plates under conditions supporting cell adherence to induce differentiation of hES attached to a surface. In suspension culture, EBs were formed in ultra low attachment plates in SF medium over night. After over night incubation SF medium was replace by fresh SF medium or END2-CM respectively for further differentiation. Subsequent medium changes were performed every 3-4 days. Usually, cells were cultured over a period of 12-13 days before the visual analysis of the proportion of beating EBs under a microscope was performed followed by cell collection for additional readouts. Multiple beating areas on single EBs were not counted separately. […] Cell harvest and analysis at time points other then 12-13 days after EB formation is indicated in the respective examples and figures of this embodiment. […] An average value per well was calculated and presented. hES differentiation in suspension culture: EBs were formed in ultra low attachment plates in SF medium over night. After over night incubation SF medium was replace by fresh SF medium or END2-CM. […] Subsequent medium changes were performed every 3-4 days. Usually, cells were cultured over a period of 12-13 days. […] Medium change was performed at day 3, 6 and 9 after EB formation.

[4] = test system: hES cells; assay: Quantification of cardiomyocytes by Cytospin and MF20 staining; format: cell-based, human
Protocol: (§1) To more accurately determine the number of cardiomyocytes in the differentiated cell population, EBs were collected, washed in PBS^− and incubated with 0.05% Trypsin for 5 min at 37° C. Cell clumps were triturated and incubated for another 5 min at 37° C. Trypsin activity was inactivated with serum containing media and cells were collected via centrifugation at 2500 rpm for 4 min at 4° C. The cell pellet was resuspended in PBS for cell count and cytospun onto glass slides at 500 rpm for 5 min at low acceleration using 1×10^5 cells. Cells were stained immediately (see previous example) and a cell count performed.
(§2) Readouts were performed on day 13: the percentage of beating EBs was defined, the average cell number per well was counted via a cytometer after EBs dissociation with trypsin, the percentage of cardiomyocytes was divined via cytospin followed by cardiomyocyte specific anti α-Myosin Heavy Chain stain (MF20 antibody), and RNA was harvest for qRT-PCR.

[5] = test system: hES cells; assay: Cell count per well after EB differentiation
Protocol: as §1, §2

[6] = test system: hES cells; assay: hES differentiation as embryoid bodies (EBs) in suspension culture, scoring of beating EBs; format: cell-based; conditions: hES maintained on human feeder (HF), 12 days; END2-CM only, or SB203580 at 5 μM in END2-CM
[7] = test system: JNK and/or p42/p44 MAP kinase; conditions: cited from earlier work
[8] = test system: hES cells; assay: EB morphology, H&E staining on paraffin sections; format: cell-based, human
Protocol: Paraffin sections: Beating EBs were collected and fixed for 15 min in 10% formalin at room temperature. EBs were then embedded in 1.5% agarose and dehydrated through 70% to 100% ethanol with a last incubation in xylene. The agarose block was then embedded in paraffin. 5 μm thick sections were cut in ribbons, floated on a warm water bath of 45° C., mounted on slides, and left to air dry at 37° C. overnight.
For hES culture on human feeder cells, see Example 2. For Immunohistochemistry performed here, see example 3. H&E staining on Paraffin sections was performed at the BSF facility (Biopolis).

[9] = test system: mouse embryonic carcinoma cell line P19; conditions: cited from earlier work
[10] = END2-CM supplemented with 0.1 mM Vitamin C, day 12
[11] = 0.2 μM and 2 μM in bSF, 12 days
[12] = Example 5, END2-CM alone, or SB203580 at 5 μM in END2-CM
[13] = high concentration (20 μM) in END2-CM
[14] = inhibitor added day 6 onwards, END2-CM

**Q.** What does the source list for `O=C1O[C@H]([C@@H](O)CO)C(O)=C1O` [Vitamin C]?
**A.** increase in the number of beating areas [1]: up to 40%; expression of cardiac specific markers ANF or α-MHC [2, 10]: increased; increase in the number of beating EBs [3, 10]: up to 20%

**Q.** Which results are given for `CC(=O)O` [AA, Acetic Acid]?
**A.** proportion of cardiomyocytes ([4]; 0.5 μM or 5 μM AA in bSFS, day 13): slightly increased; day 13 cell count per well of a 6-well plate ([5]; bSFS + 0.5 μM Acetic Acid (AA)): 1.18 × 10^6; day 13 cell count per well of a 6-well plate ([5]; bSFS + 5.0 μM AA): 1.03 × 10^6; relative expression of α-MHC ([2]; 0.5 μM in bSFS vs bSFS alone): about the same; relative expression of α-MHC ([2]; 5 μM in bSFS vs bSFS alone): slide increase; fold increase in relative α-MHC expression ([2]; AA at a 0.5 μM concentration in bSFS (second statement)): about 2 fold; percentage of beating EBs on day 13 ([3]; 0.5 μM in bSFS vs bSFS alone): about the same; percentage of beating EBs on day 13 ([3]; 5 μM in bSFS vs bSFS alone): slide increase

**Q.** What does the source list for `CCCCC[C@H](O)/C=C/[C@@H]1[C@H]2C/C(=C/CCCC(=O)[O-])O[C@H]2C[C@H]1O.[Na+]` [PGI2, (5Z, 9α, 11α, 13E, 15S)-6,9-Epoxy-11,15-dihydroxyprosta-5,13-dien-1-oic acid Sodium salt]?
**A.** fold higher relative expression of the cardiac marker α-MHC [2, 11]: 2-3 fold; fold higher percentage of beating EBs [3, 11]: 3 fold; EB beating levels and marker gene expression levels compared to END2-CM ([3]; bSF with PGI2 at 0.2 μM and 2 μM): equivalent or even higher

**Q.** With `C[S+]([O-])c1ccc(-c2nc(-c3ccc(F)cc3)c(-c3ccncc3)[nH]2)cc1` (centres unmarked) [SB203580, 4-(4-Fluorophenyl)-2-(4-methylsulfinylphenyl)-5-(4-pyridyl)1H-imidazole] as the compound, how does the “percentage of beating EBs” value [6] read?
**A.** 60-87%

**Q.** And the “inhibition of JNK and/or p42/p44 MAP kinase” value [7]?
**A.** does not inhibit

**Q.** What about the percentage of cardiomyocytes ([4]; 5 μM in END2-CM, day 13) of the same compound?
**A.** slightly elevated

**Q.** What about the proportion of cardiomyocytes ([4]; 5 μM in bSFS, day 13) of the same compound?
**A.** almost tripled

**Q.** And the “cardiomyocytes (MF-20 positive) in EBs at day 12” value [4, 12]?
**A.** 21.7%

**Q.** And the “day 13 cell count per well of a 6-well plate” value ([5]; CM + 5 μM SB203580)?
**A.** 3.63 × 10^6

**Q.** And the “total cell number at day 12” value ([5]; Example 5, END2-CM alone, or END2-CM supplemented with 5 μM SB203580)?
**A.** 1.16×10^6 cells/well

**Q.** And the “expression of cardiac markers at day 12” value ([2]; 5 μM from the start in END2-CM vs END2-CM alone)?
**A.** increased expression

**Q.** And the “Brachyury expression around day 4” value ([2]; 5 μM in END2-CM)?
**A.** strong upregulation

**Q.** And the “expression of skeletal (Myf5), endoderm (Sox17) or neuroectoderm (Sox1) markers” value ([2]; 5 μM in END2-CM)?
**A.** did not induce expression

**Q.** And the “expression of the cardiac markers Nkx2.5 and α-MHC at day 12” value ([2]; 5 μM in END2-CM)?
**A.** higher expression

**Q.** What about the Brachyury expression ([2]; 5 and 20 μM in END2-CM) of the same compound?
**A.** upregulated

**Q.** And the Sox1 expression ([2]; END2-CM supplemented with 25 μM)?
**A.** significantly expressed

**Q.** And the “α-MHC expression at day 12” value ([2]; Example 7, 5 μM in END2-CM)?
**A.** increased

**Q.** And the “expression of precardiac mesoderm (Nkx2.5) and cardiac marker genes” value ([2]; Example 7, 20 μM in END2-CM)?
**A.** reduced

**Q.** What about the Sox1 expression ([2]; SF medium, from 10 μM onwards) of the same compound?
**A.** upregulated

**Q.** And the Sox1 expression [2, 13]?
**A.** strongly upregulated

**Q.** And the “Sox17 expression at day 12” value [2, 13]?
**A.** higher expressed

**Q.** And the Mesp1 expression ([2]; higher concentration (20 μM) in END2-CM)?
**A.** comparable to EBs grown in SF medium

**Q.** What about the “expression of α-MHC” value ([2]; highest concentration (25 μM) in END2-CM) of the same compound?
**A.** barely detectable

**Q.** And the “expression of α-MHC at day 12” value [2, 14]?
**A.** no effect

**Q.** What about the Mesp1 expression ([2]; low concentration (5 μM) in END2-CM) of the same compound?
**A.** higher expressed

**Q.** What about the “expression of α-MHC” value ([2]; over 10 μM in END2-CM) of the same compound?
**A.** declined

**Q.** And the “morphology of EBs” value ([8]; higher concentrations in END2-CM, 12 days)?
**A.** more compact and do not form epithelial visceral endoderm

**Q.** What about the “appearance of neural progenitor population in EBs” value ([8]; higher doses (>5 μM-25 μM), END2 CM) of the same compound?
**A.** morphological uniform neuroepithelial EBs with clear rosette structure formed

**Q.** And the “neurite-like outgrowth of attached EBs” value ([8]; serum free condition + 10 μM, 12 days)?
**A.** high number of neurite-like outgrowth

**Q.** What about the “number of EBs with beating foci” value [3] of the same compound?
**A.** increased

**Q.** And the beating ([3]; 15 μM or more in END2-CM)?
**A.** declined

**Q.** What about the “formation of beating foci at day 12” value ([3]; 20 μM in END2-CM) of the same compound?
**A.** almost completely suppressed

**Q.** And the beating ([3]; 25 μM in END2-CM)?
**A.** no beating detectable

**Q.** And the “size of the contracting area and beating frequency of beating foci” value ([3]; END2-CM with SB203580)?
**A.** positive effect

**Q.** And the “beating EBs at day 12” value [3, 12]?
**A.** 78%

**Q.** And the “beating foci on EBs” value ([3]; SF medium supplemented with 5 μM)?
**A.** beating foci were detected

**Q.** What about the “number of beating foci per EB at day 12” value ([3]; added during the first 3 days of differentiation) of the same compound?
**A.** remarkable increase

**Q.** What about the “percentage of beating EBs” value ([3]; hES batches less responsive to END2-CM (below 50% beating), SB203580 in END2-CM) of the same compound?
**A.** more than 60%

**Q.** And the “number of beating foci” value [3, 14]?
**A.** no effect

**Q.** And the “number of beating foci” value ([3]; up to 10 μM in END2-CM, 12 days, vs non-supplemented END2-CM)?
**A.** increase

**Q.** And the “cardiomyocyte differentiation in P19” value [9]?
**A.** prevented cardiomyocyte differentiation

**Q.** With `Oc1ccc(-c2nc(-c3ccncc3)c(-c3ccc(F)cc3)[nH]2)cc1` [SB202190] as the compound, how does the “number of EBs with beating foci” value [3] read?
**A.** the same effect; also recorded: comparable cardiogenic effect
